Results published in publication PMC5923425, “Structural analysis of human ARS2 as a platform for co-transcriptional RNA sorting” (Nature Communications, 2018).
One block for each molecule: values may come before it.

Key:
[1] = target: T1, NCBP3 (full-length, residues 1–620) (Homo sapiens, UniProt Q53F19); assay: isothermal titration calorimetry; format: binding
T1 construct: full-length residues 1-620, pFASTBac HTb, expressed in High Five insect cells, N-terminal His6 tag cleaved with TEV
T1 sequence (Q53F19 1-620): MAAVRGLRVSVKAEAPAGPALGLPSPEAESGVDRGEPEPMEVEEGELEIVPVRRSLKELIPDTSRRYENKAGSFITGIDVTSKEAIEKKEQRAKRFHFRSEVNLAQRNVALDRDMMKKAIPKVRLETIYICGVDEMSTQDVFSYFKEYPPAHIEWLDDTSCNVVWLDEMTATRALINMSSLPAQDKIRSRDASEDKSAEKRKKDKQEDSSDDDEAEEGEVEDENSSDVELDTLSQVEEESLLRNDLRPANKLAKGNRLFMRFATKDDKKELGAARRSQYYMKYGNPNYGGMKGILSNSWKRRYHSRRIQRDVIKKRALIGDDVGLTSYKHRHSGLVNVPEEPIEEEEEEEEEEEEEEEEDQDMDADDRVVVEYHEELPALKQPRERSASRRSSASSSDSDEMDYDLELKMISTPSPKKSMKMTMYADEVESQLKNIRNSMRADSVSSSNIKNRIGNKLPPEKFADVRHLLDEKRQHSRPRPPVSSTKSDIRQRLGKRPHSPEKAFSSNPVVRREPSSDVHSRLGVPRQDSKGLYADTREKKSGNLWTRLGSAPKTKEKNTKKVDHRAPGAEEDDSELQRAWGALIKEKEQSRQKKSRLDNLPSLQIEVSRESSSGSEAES
Description: isothermal titration calorimetry on NCBP3 (full-length, residues 1–620)

NCBP3/2xCBP80 = target: T2, NCBP3/2xCBP80 (Homo sapiens, UniProt Q53F19); assay: isothermal titration calorimetry; format: binding
T2 construct: full-length NCBP3 (insect cells, tag cleaved) with CBP80 added (2x, apparently molar excess)
T2 sequence (Q53F19 1-620): T1 sequence (Q53F19 1-620)
T2 sequence (Q09161 20-790 partner limits assumed): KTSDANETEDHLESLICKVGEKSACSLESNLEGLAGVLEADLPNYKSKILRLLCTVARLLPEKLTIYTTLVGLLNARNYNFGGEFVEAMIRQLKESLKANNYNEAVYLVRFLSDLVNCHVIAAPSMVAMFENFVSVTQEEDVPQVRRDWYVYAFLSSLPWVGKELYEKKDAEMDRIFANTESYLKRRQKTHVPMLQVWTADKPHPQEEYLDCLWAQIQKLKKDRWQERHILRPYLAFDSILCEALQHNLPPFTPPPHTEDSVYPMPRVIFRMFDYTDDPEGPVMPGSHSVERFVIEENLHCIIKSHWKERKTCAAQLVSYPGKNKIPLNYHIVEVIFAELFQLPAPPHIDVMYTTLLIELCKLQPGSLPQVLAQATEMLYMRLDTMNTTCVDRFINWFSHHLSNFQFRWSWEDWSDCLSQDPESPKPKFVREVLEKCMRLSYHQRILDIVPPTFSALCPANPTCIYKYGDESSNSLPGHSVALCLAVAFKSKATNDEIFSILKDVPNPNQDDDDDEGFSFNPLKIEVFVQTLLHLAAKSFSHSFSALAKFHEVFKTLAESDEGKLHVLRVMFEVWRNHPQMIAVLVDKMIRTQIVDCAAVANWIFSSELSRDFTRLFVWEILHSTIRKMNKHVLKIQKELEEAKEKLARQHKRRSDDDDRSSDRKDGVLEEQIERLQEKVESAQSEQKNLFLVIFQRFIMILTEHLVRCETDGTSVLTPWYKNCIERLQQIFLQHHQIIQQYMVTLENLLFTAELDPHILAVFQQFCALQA
Description: isothermal titration calorimetry on NCBP3/2xCBP80

CBP20/2xCBP80 (CBC) = target: T3, CBP20/2xCBP80 (CBC) (Homo sapiens, UniProt P52298); assay: isothermal titration calorimetry; format: binding; conditions: 250 mM NaCl, 20 mM HEPES, 2 mM TCEP, pH 7.8, 25 °C; CBP80 present (2x)
T3 construct: gene NCBP2; CBP20-CBP80 heterodimer, CBP80 added 2x (apparently molar excess)
T3 sequence (P52298 2-156): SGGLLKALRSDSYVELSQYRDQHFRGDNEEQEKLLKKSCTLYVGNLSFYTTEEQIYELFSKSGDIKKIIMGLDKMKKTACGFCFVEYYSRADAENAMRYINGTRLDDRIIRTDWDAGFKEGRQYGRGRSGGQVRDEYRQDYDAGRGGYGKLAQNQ
T3 sequence (Q09161 20-790 partner limits assumed): T2 sequence (Q09161 20-790 partner limits assumed)
Description: isothermal titration calorimetry on CBP20/2xCBP80 (CBC)

CBP20 = target: T4, CBP20 (Homo sapiens, UniProt P52298); assay: isothermal titration calorimetry; format: binding; conditions: 250 mM NaCl, 20 mM HEPES, 2 mM TCEP, pH 7.8, 25 °C; CBP20 without CBP80
T4 construct: gene NCBP2; CBP20 alone, recombinant, purified as described previously
T4 sequence (P52298 2-156): T3 sequence (P52298 2-156)
Description: isothermal titration calorimetry on CBP20

NCBP3 1–282 = target: T5, NCBP3 1–282 (Homo sapiens, UniProt Q53F19); assay: isothermal titration calorimetry; format: binding
T5 construct: N-terminal region with putative RRM domain, residues 1-282, pETM11, E. coli Rosetta 2, His6 tag cleaved with TEV
T5 sequence (Q53F19 1-282): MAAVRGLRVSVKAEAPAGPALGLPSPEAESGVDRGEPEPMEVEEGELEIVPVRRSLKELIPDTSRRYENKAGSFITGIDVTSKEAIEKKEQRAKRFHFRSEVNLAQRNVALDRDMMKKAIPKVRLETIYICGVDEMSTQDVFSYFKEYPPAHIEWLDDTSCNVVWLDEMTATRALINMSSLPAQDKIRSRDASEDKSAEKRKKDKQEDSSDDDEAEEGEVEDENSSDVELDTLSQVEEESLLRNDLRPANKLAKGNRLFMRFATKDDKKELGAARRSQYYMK
Description: isothermal titration calorimetry on NCBP3 1–282

ARS2^147–871 = target: T6, ARS2^147–871 (human, UniProt Q9BXP5-4 147-871); assay: pull-down; GST–FLASH 903–943 (or GST as control) immobilised on glutathione sepharose, incubated with purified ARS2 constructs 30 min at 10 °C; flow-through, wash and elution on Coomassie-stained SDS-PAGE; conditions: both partners purified
T6 construct: human ARS2 (SRRT) isoform-e, 871 residues, residues 147-871, cloned into pETM11; also called hARS2; SRRT; source: E. coli Rosetta 2, purified (Ni-Sepharose, TEV cleavage, HiTrap Q, heparin if necessary, SEC); not shown: His6, N-terminal, cleaved
T6 sequence (looked up): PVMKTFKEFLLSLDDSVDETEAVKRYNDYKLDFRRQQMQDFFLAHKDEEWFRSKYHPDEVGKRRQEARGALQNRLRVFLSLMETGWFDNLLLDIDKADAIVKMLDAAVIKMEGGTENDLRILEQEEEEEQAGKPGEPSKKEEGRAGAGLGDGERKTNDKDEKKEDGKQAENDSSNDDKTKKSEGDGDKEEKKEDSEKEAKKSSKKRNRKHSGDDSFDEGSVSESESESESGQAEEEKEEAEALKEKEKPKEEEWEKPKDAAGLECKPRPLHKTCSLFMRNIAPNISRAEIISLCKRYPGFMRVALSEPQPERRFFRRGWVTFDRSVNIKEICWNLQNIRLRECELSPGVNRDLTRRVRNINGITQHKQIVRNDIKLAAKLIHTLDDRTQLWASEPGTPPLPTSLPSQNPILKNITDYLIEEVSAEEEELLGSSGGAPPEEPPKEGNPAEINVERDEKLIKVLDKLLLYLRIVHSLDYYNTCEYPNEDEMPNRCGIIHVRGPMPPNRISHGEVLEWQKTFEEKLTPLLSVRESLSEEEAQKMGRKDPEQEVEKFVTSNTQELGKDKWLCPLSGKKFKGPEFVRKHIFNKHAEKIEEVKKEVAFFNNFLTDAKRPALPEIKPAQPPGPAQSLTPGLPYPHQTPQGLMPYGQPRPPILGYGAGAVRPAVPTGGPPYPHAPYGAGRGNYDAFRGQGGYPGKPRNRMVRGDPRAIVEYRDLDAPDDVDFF

- Kd [1]: 4.6 ± 1 µM
- Kd (NCBP3/2xCBP80): 7.9 ± 0.9 µM
- Kd (CBP20/2xCBP80 (CBC)): 0.37 ± 0.04 µM
- Kd (CBP20): 84 ± 4.2 µM
- Kd (NCBP3 1–282): 8.3 ± 3 µM
Molecule: C[n+]1cn([C@@H]2O[C@H](COP(=O)(O)OP(=O)(O)OP(=O)(O)O)[C@@H](O)[C@H]2O)c2nc(N)[nH]c(=O)c21 [m^7GTP]

- binding result (ARS2^147–871): binds
B1: GST–FLASH^903–943 (domain or fragment, UniProt Q9UKL3 903-943, looked up)
chain: SDLNKENQKPIYKSDKCTEADTCKNSPLDELEEGEIRSDSE
notes: FLASH (FLICE-associated huge protein), residues 903-943, holds FARB; cloned into the GST-vector pETM30; source: E. coli, expressed and purified; immobilised on glutathione sepharose
